Measurements published in paper PMC11142920, “De novo-designed transmembrane proteins bind and regulate a cytokine receptor” (Nature Chemical Biology, 2024).

Legend:
[1] = test system: mEpoR; assay: EPO-induced proliferation (growth inhibition) of BaF3/mEpoR cells expressing TM proteins; assay type: cell-based, mouse; conditions: 0.06 U ml^−1 EPO, IL-3-free, 6-8 days; versus empty vector
Method: Mouse IL-3-dependent BaF3 and derivative cells were maintained in RPMI-10 medium: RPMI-1640 supplemented with 10% heat-inactivated FBS, 5% WEHI-3B cell-conditioned medium (as the source of IL-3), 4 mM L-glutamine, 0.06 mM β-mercaptoethanol and 1⨯ P-S. BaF3 cells expressing mEpoR, hEpoR and all EpoR mutants and chimeras were generated by infecting BaF3 cells with pMSCV-neo vector containing the desired HA-tagged EpoR gene. BaF3 cells (5 ⨯ 10^5) were washed with PBS and then resuspended in 500 μl of RPMI-10 medium with 4 μg ml^−1 polybrene. […]
For proliferation assays, 2 ⨯ 10^5 BaF3 and derivative cells expressing the appropriate genes were washed in PBS three times to remove IL-3. […] Viable cells were counted 6−8 days after IL-3 removal. […] The statistical significance of differences between control and experimental samples was evaluated by either one-tailed or two-tailed Student’s t-tests with unequal variance, performed using the T.TEST function in Microsoft Excel (2013).
For proliferation assays, BaF3/mEpoR/tTA cells expressing CHAMP proteins were first cultured in 10 ml of RPMI-10/IL-3 medium in the absence of Dox or supplemented with 100 or 200 pg ml^−1 Dox for 48 h. Then, 2 ⨯ 10^5 BaF3 cells were washed in PBS, resuspended in IL-3-free medium supplemented with the same concentration of Dox and 0.06 U ml^−1 human EPO, and counted as described above.

[2] = test system: mEpoR−GFP1-10; assay: Split GFP complementation with mEpoR−GFP1-10; assay type: cell-based, mouse; conditions: flow cytometry, BaF3 cells
[3] = test system: ErbB2−GFP1-10; assay: Split GFP complementation with ErbB2−GFP1-10; assay type: cell-based; conditions: flow cytometry, BaF3 (tTa) cells, 1 pM doxycycline
[4] = molecular target: mEpoR-TM2 (isotope-labeled mEpoR TM domain fragment) (mouse); assay: SDS-PAGE; mEpoR TM peptide on SDS-PAGE, non-covalent monomer and dimer bands
[5] = molecular target: GFP11−CHAMP-1 (Flag tag, GFP11, GGG linker, CHAMP-1); assay: split reporter (BiFC, NanoBiT); split GFP complementation in BaF3 cells co-expressing a GFP1-10 fusion and a GFP11 fusion; mean fluorescence intensity by flow cytometry
[6] = test system: mEpoR TM domain; conditions: parallel self-interaction; ref [25]–[28]; cited from earlier work
Description: EpoR is a prototypical cytokine receptor whose TM domain contributes to both receptor homodimerization[25]–[27] and conformational coupling upon ligand binding[28],[29], activating the Janus kinase (JAK)−signal transducer and activator of transcription (STAT) pathway. […] In model membranes, designed TM peptides hosting SXXLXXX sequence repeats spontaneously homodimerize, strongly favoring parallel TM helix geometry like that of ...

Molecule: MDHLGASLWPQVGSLCLLLAGAAWAPPLDPLILTLSLILVLISLLLTVLALLSHRRALKQKIWPGIPSPESEGPYSNPYENSLIPAAEPLPPSYVACS [mEpoR TM domain mimic protein, type I mEpoR TM domain mimic protein expressed in BaF3 cells]
- inhibition of EPO-induced proliferation (in words) [1]: did not show inhibited proliferation

Molecule: MDHLGASLWPQVGSLCLLLAGAAWERVQLAHHFSEPEITLIIFGVMAGVIGTILLISYGIRRLIGGSGGGGSGGRDHMVLHEYVNAAGIT [glycophorin A, GlycophorinA TM domain construct fused at its c-terminus to GFP11]
- fluorescence in mEpoR−GFP1-10 expressing cells (in words) [2]: fluorescence was not increased

Molecule: MDHLGASLWPQVGSLCLLLAGAAWPVTFIIATVVGVLLFLILVVVVGILGGSGGGGSGGRDHMVLHEYVNAAGIT [ErbB2 TM domain fusion, ErbB2 TM domain construct fused to GFP11 at its c-terminus]
- fluorescence in mEpoR−GFP1-10 expressing cells (in words) [2]: fluorescence was not increased
- complementation of ErbB2−GFP1-10 [3]: could complement ErbB2−GFP1-10

Molecule: MRLPGAMPALALKGELLLLSLLLLLEPQISQGLVVTPKVVVISAILALVVLTIISLIILIMLWQKKPRYEIRWKVIESVSCPAPRAEAEDSFL [PDGFβR, unrelated platelet-derived growth factor β receptor TM domain protein construct]
- inhibition of EPO-induced proliferation (in words) [1]: did not show inhibited proliferation

Molecule: mEpoR-TM2 (isotope-labeled mEpoR TM domain fragment) (peptide)
- stoichiometry N [4]: 2

B1: mEpoR−GFP1-10 fusion protein (domain or fragment)
chain: APSPSLPDPKFESKAALLASRGSEELLCFTQRLEDLVCFWEEAASSGMDFNYSFSYQLEGESRKSCSLHQAPTVRGSVRFWCSLPTADTSSFVPLELQVTEASGSPRYHRIIHINEVVLLDAPAGLLARRAEEGSHVVLRWLPPPGAPMTTHIRYEVDVSAGNRAGGTQRVEVLEGRTECVLSNLRGGTRYTFAVRARMAEPSFSGFWSAWSEPASLLTASDLDPLILTLSLI
- fold MFI over cells expressing mEpoR−GFP1-10 alone or the CHAMP-1 fusion alone [5]: > 4 fold

B2: mEpoR: mouse erythropoietin receptor (target); TM domain (protein)
chain: APSPSLPDPKFESKAALLASRGSEELLCFTQRLEDLVCFWEEAASSGMDFNYSFSYQLEGESRKSCSLHQAPTVRGSVRFWCSLPTADTSSFVPLELQVTEASGSPRYHRIIHINEVVLLDAPAGLLARRAEEGSHVVLRWLPPPGAPMTTHIRYEVDVSAGNRAGGTQRVEVLEGRTECVLSNLRGGTRYTFAVRARMAEPSFSGFWSAWSEPASLLTASDLDPLILTLSLILVLISLLLTVLALLSHRRTLQQKIWPGIPSPESEFEGLFTTHKGNFQLWLLQRDGCLWWSPGSSFPEDPPAHLEVLSEPRWAVTQAGDPGADDEGPLLEPVGSEHAQDTYLVLDKWLLPRTPCSENLSGPGGSVDPVTMDEASETSSCPSDLASKPRPEGTSPSSFEYTILDPSSQLLCPRALPPELPPTPPHLKYLYLVVSDSGISTDYSSGGSQGVHGDSSDGPYSHPYENSLVPDSEPLHPGYVACS
modifications: left off: HA, end not stated, kept
notes: mouse erythropoietin receptor (target); TM domain
- homodimerization of mEpoR TM domains [6]: only weakly homodimerize
